18 compounds from US11912682B2, “Isoindolinone compounds” (Monte Rosa Therapeutics, Inc., priority 2021, dated 2024) can be followed below.

Structures are written as SMILES. A value given as a limit tells only on which side of the number the result lay.

Full length wild-type cereblon CRBN, sequence (Q96SW2 whole entry): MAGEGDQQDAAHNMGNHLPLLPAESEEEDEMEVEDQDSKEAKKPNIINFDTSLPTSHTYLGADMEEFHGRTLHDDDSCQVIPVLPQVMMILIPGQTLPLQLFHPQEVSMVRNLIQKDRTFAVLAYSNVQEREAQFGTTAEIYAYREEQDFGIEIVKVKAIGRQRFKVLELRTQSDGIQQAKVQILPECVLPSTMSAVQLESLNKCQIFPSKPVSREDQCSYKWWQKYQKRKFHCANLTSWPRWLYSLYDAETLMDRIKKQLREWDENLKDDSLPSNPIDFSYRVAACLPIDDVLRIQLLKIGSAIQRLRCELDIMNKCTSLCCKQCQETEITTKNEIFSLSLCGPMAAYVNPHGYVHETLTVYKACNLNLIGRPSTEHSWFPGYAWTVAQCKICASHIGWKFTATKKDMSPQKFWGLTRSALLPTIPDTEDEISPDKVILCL

In the first experiment the target is GSPT1 (Homo sapiens (Human), UniProt P15170+Q96SW2). Description: immunofluorescence assay for GSPT1 degradation in CAL-51 cells (Example 4). The note with it: 6 hours, read-out: Activity for GSPT1 degradation, Code (DC50). The experiment is classed as cell-based. Here is the method: The representative compounds were tested in an immunofluorescence assay for their activity to bind to degrade GSPT1. CAL-51 cells were purchased from DSMZ (cat. Number ACC302), sub-cultured in 90% Dulbecco's MEM (4.5 g/L glucose, Gibco 11965) +10% heat inactivated FBS (BioConcept, 2-01F136I) and incubated at 37° C., 5% CO2. For the assay, imaging microtiterplate Cell Carrier 96 Ultra (Perkin Elmer 6055302) were pre-coated with Fibronectin (Sigma F085, 30 μl at 0.2 μg/ml) in PBS (100 μl, Gibco 14190) for 45 min at room temperature, rinsed with PBS and CAL-51 cells (30 K cells/well) were plated and let to adhere overnight. Cells were treated with compounds typically using a serial dilution ranging from 30 μM to 0.1 nM for 6 hours. Compounds were stored at 10 mM DMSO stocks. Vehicle (DMSO), positive (CC-885, 10 μM) and rescue controls (positive control plus 0.2 μM bortezomib) were also included atthis stage. Cells were subsequently rinsed with PBS and fixed in 10% Formalin solution (50 μl, Sigma HT5011)) for 20 mins at room temperature. Following three consecutive PBS washes (100 μl), cells were permeabilized in 0.1% Triton X-100 in PBS (Sigma 93443, 50 μl) for 15 mins at room temperature. Following three further PBS washes, 50 μl blocking buffer (1% BSA, Sigma A4503, in PBS) was added for 45 min for signal-to-noise reduction.
GSPT1, sequence (P15170 whole entry): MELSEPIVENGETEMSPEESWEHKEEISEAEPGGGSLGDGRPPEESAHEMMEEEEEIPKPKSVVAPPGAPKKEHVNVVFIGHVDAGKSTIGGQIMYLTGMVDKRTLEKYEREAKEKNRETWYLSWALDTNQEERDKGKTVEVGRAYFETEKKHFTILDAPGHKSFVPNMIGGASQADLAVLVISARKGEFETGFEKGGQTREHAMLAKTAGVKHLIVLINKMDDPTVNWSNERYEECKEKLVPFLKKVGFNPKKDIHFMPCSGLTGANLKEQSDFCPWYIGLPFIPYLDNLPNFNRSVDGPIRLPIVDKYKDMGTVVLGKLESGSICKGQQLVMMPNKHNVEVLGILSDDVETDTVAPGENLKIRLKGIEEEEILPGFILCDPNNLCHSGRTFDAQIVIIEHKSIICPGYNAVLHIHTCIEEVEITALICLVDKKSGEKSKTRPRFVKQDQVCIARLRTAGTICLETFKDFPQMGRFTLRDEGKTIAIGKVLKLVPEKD
GSPT1, sequence (Q96SW2 whole entry): as the sequence (Q96SW2 whole entry) above
GSPT1, sequence (Q16531 2-1140 partner): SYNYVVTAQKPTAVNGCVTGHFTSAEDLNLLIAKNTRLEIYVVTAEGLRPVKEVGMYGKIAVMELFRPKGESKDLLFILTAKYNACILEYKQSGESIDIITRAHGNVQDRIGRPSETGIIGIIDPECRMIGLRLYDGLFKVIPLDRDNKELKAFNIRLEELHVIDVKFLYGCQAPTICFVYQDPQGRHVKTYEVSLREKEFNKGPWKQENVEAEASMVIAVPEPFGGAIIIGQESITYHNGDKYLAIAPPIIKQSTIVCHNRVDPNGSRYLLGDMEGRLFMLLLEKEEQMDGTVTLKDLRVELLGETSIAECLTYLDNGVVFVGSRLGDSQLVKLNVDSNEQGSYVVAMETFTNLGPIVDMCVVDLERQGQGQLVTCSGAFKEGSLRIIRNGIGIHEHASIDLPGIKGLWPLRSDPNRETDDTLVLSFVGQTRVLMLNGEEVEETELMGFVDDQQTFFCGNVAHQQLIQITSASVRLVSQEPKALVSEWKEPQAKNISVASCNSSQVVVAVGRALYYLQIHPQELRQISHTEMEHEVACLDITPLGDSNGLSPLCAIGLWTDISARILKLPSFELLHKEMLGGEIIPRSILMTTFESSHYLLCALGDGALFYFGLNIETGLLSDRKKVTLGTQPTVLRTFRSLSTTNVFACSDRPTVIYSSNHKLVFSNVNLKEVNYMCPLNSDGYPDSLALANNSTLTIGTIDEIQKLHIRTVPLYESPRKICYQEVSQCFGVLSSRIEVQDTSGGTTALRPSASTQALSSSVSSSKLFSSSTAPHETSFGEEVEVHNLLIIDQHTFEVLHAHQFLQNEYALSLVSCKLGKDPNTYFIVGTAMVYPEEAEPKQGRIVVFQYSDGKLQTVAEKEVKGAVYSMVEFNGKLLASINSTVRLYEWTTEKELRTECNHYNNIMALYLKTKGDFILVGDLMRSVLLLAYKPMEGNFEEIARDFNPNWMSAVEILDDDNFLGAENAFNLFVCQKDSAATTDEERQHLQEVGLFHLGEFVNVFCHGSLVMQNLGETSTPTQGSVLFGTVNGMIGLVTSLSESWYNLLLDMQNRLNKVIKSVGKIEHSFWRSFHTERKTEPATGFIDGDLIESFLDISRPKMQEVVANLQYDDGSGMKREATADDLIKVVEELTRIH
Primary antibody (human GSPT1, Sigma HPA052488) was diluted in blocking buffer (dil.1/300, 35 μl/well) and incubated with the cells overnight at 4° C. After three PBS washes, Alexa-fluor 488 coupled secondary antibodies (Invitrogen, A32731, dil.1/1000), Alexa-fluor 647-Phalloidin (Invitrogen, A22287, dil.1/200) and DAPI (Thermo, #62248, dil.1/1000) were diluted in blocking buffer and incubated with the samples for 2 hours at room temperature. After three final PBS washes, samples were conserved in 100 μl PBS in the dark, until measurement. Image acquisition was performed on the Operetta High-Content Imager (Perkin-Elmer). Fluorescence intensity of Alexa-Fluor 488 (GSPT1), Alexa-Fluor 647 (Actin) and DAPI (Nucleus) were measured. For the determination of GSPT1 DC50 values, a custom algorithm implemented in the PerkinElmer image analysis software Harmony-Acapella® was developed. After user-defined setting of adjustment parameters, the analysis was run identically without human intervention for all image fields. DAPI staining of the nuclei was used to determine the location of cells using standard nuclei detection modules. Segmentation artifacts were removed by threshold-based filters for area, roundness and intensity. The outline of the cells was determined analogously from the sum of the normalized, smoothed DAPI and Actin channel, starting from each nucleus. The Alexa-Fluor 488 (GSPT1) signal intensity in each cell was finally measured, in order to obtain a Mean intensity per cell. GSPT1 degradation (DC50) was calculated after normalization to controls and data import in CDD vault Database, using non-linear regression.
One may read the DC50 as the concentration giving 50% degradation. For `O=C1CCC(N2Cc3ccc(COC(=O)Nc4cc(F)cc(OC(F)(F)F)c4)cc3C2=O)C(=O)N1` (stereo not drawn) [Compound 57], the 50% degradation concentration (DC50) was less than 0.03 µM.

As to `CC1(c2ccc(NC(=O)OCc3ccc4c(c3)C(=O)N(C3CCC(=O)NC3=O)C4)cc2)CC1` (stereo not drawn) [Compound 58], the half-maximal degradation concentration (DC50) is less than 0.03 µM.

Regarding `O=C1CCC(N2Cc3ccc(COC(=O)Nc4cc(OC(F)(F)F)ccn4)cc3C2=O)C(=O)N1` (stereo not drawn) [Compound 59], the half-maximal degradation concentration (DC50) was 0.03 to 0.3 µM.

Turning to `O=C1CCC(N2Cc3ccc(COC(=O)Nc4ccc(N5CCCC5)nc4)cc3C2=O)C(=O)N1` (stereo not drawn) [Compound 60], the DC50 lay in the range of 0.03 to 0.3 µM.

For the compound `O=C1CCC(N2Cc3ccc(COC(=O)Nc4ccc(F)c(OC(F)(F)F)c4)cc3C2=O)C(=O)N1` (stereo not drawn) [Compound 61], the half-maximal degradation concentration (DC50) was less than 0.03 µM.

As for `CC1(c2ccc(NC(=O)OCc3ccc4c(c3)C(=O)N(C3CCC(=O)NC3=O)C4)cc2)COC1` (stereo not drawn) [Compound 62], the half-maximal degradation concentration (DC50) was in the range of 0.03 to 0.3 µM.

Regarding `CCc1cc(NC(=O)OCc2ccc3c(c2)C(=O)N(C2CCC(=O)NC2=O)C3)ccn1` (stereo not drawn) [Compound 63], the half-maximal degradation concentration (DC50) is greater than 0.3 µM.

As to `O=C1CCC(N2Cc3ccc(COC(=O)Nc4cnc(N5CCCCC5)nc4)cc3C2=O)C(=O)N1` (stereo not drawn) [Compound 64], the DC50 fell in the range of 0.03 to 0.3 µM.

Turning to `O=C1CCC(N2Cc3ccc(COC(=O)Nc4ccc(N5CC6CCC(C5)O6)nc4)cc3C2=O)C(=O)N1` (stereo not drawn) [Compound 65], the half-maximal degradation concentration (DC50) was greater than 0.3 µM.

Take `O=C1CCC(N2Cc3ccc(COC(=O)Nc4ccc5c(c4)CCO5)cc3C2=O)C(=O)N1` (stereo not drawn) [Compound 66]: the 50% degradation concentration (DC50) lay in the range of 0.03 to 0.3 µM.

Turning to `O=C1CCC(N2Cc3ccc(COC(=O)Nc4ccc5c(c4)CCCO5)cc3C2=O)C(=O)N1` (stereo not drawn) [Compound 67], the 50% degradation concentration (DC50) lay within 0.03 to 0.3 µM.

On to `Cc1c(Cl)cc(NC(=O)OCc2ccc3c(c2)C(=O)N(C2CCC(=O)NC2=O)C3)cc1OC1CCN(C)C1` (stereo not drawn) [Compound 68], for which the DC50 is less than 0.03 µM.

As to `CC1CCN(c2ccc(NC(=O)OCc3ccc4c(c3)C(=O)N(C3CCC(=O)NC3=O)C4)cn2)C1` (stereo not drawn) [Compound 69], the 50% degradation concentration (DC50) was less than 0.03 µM.

For the compound `Cc1c(Cl)cc(NC(=O)OCc2ccc3c(c2)C(=O)N(C2CCC(=O)NC2=O)C3)cc1OCC1CCN(C)C1` (stereo not drawn) [Compound 70], the DC50 was 0.03 to 0.3 µM.

On to `O=C1CCC(N2Cc3ccc(COC(=O)Nc4cnc(N5CCCCC5)c(F)c4)cc3C2=O)C(=O)N1` (stereo not drawn) [Compound 72], for which the DC50 is 0.03 to 0.3 µM.

As to `O=C1CCC(N2Cc3ccc(COC(=O)Nc4ccc(N5CCCC(F)(F)C5)nc4)cc3C2=O)C(=O)N1` (stereo not drawn) [Compound 73], the 50% degradation concentration (DC50) is 0.03 to 0.3 µM.

Regarding `CC1CCCN1c1ccc(NC(=O)OCc2ccc3c(c2)C(=O)N(C2CCC(=O)NC2=O)C3)cn1` (stereo not drawn) [Compound 74], the DC50 is less than 0.03 µM.

Take `O=C1CCC(N2Cc3ccc(COC(=O)Nc4ccc(N5CCCCC5)nn4)cc3C2=O)C(=O)N1` (stereo not drawn) [Compound 75]: the half-maximal degradation concentration (DC50) lay in the range of 0.03 to 0.3 µM.

Staying with this experiment, now noted: GSPT1 degradation, read-out: DC50 value.
With `O=C1CCC(N2Cc3ccc(COC(=O)Nc4cc(F)cc(OC(F)(F)F)c4)cc3C2=O)C(=O)N1` (stereo not drawn) [Compound 57], the 50% degradation concentration (DC50) is no more than 0.03 µM.

On to `CC1(c2ccc(NC(=O)OCc3ccc4c(c3)C(=O)N(C3CCC(=O)NC3=O)C4)cc2)CC1` (stereo not drawn) [Compound 58], for which the DC50 is no more than 0.03 µM.

For `O=C1CCC(N2Cc3ccc(COC(=O)Nc4ccc(F)c(OC(F)(F)F)c4)cc3C2=O)C(=O)N1` (stereo not drawn) [Compound 61], the DC50 was no more than 0.03 µM.

In the case of `Cc1c(Cl)cc(NC(=O)OCc2ccc3c(c2)C(=O)N(C2CCC(=O)NC2=O)C3)cc1OC1CCN(C)C1` (stereo not drawn) [Compound 68], the DC50 is no more than 0.03 µM.

`CC1CCN(c2ccc(NC(=O)OCc3ccc4c(c3)C(=O)N(C3CCC(=O)NC3=O)C4)cn2)C1` (stereo not drawn) [Compound 69]: the 50% degradation concentration (DC50) was no more than 0.03 µM.

On to `CC1CCCN1c1ccc(NC(=O)OCc2ccc3c(c2)C(=O)N(C2CCC(=O)NC2=O)C3)cn1` (stereo not drawn) [Compound 74], for which the DC50 was no more than 0.03 µM.

Another experiment addresses Full length wild-type cereblon CRBN (Homo sapiens (Human), UniProt Q96SW2). Description: fluorescence polarization (FP) assay, cereblon binding. The following applies: read-out: IC50 value. The text has this:
Compound activity was monitored in a fluorescence polarization (FP) homogeneous assay using 1-[5-({2-[2-(2-{[2-(2,6-dioxopiperidin-3-yl)-1,3-dioxo-2,3-dihydro-1H-isoindol-4-yl]oxy}acetamido)ethoxy]ethyl}carbamoyl)pentyl]-3,3-dimethyl-2-[(1E,3E)-5-[(2E)-1,3,3-trimethyl-5-sulfo-2,3-dihydro-1H-indol-2-ylidene]penta-1,3-dien-1-yl]-3H-indol-1-ium-5-sulfonate as a fluorescent probe. Unless otherwise stated, all reagents were purchased from Sigma Aldrich. […] Full length wild-type cereblon CRBN (80.0 nM, 10 μL) was incubated in assay buffer containing 20 mM HEPES (pH 8.0), […], 0.5 mM TCEP and 0.05% Tween 20 in the presence or absence of compound (300 nL). Inhibitors were stored as 10 mM DMSO stocks in an inert environment (low humidity, dark, low oxygen, room temperature) using the Storage Pod System. […] Following incubation at room temperature for 30 min, the assay was initiated by dispensing the probe to a final concentration of 5 nM (2.5 nL of a 20 μM stock) using the Echo ESXX. […] The FP signal was subsequently normalized to the no-compound control (i.e., DMSO). Analysis and IC50 values were derived using Dotmatics (Dotmatics UK) software.
Background: In fluorescence polarisation assays a small probe gives low polarisation when free and higher when bound to something large.
As usually defined, the IC50 is the point on the concentration scale where inhibition reaches its midpoint. Regarding `CC1(c2ccc(NC(=O)OCc3ccc4c(c3)C(=O)N(C3CCC(=O)NC3=O)C4)cc2)CC1` (stereo not drawn) [Compound 58], the IC50 was less than 1.1 µM.

For the compound `CC1(c2ccc(NC(=O)OCc3ccc4c(c3)C(=O)N(C3CCC(=O)NC3=O)C4)cc2)COC1` (stereo not drawn) [Compound 62], the IC50 was less than 1.1 µM.

As for `O=C1CCC(N2Cc3ccc(COC(=O)Nc4cnc(N5CCCCC5)nc4)cc3C2=O)C(=O)N1` (stereo not drawn) [Compound 64], the IC50 was less than 1.1 µM.

Take `O=C1CCC(N2Cc3ccc(COC(=O)Nc4ccc5c(c4)CCCO5)cc3C2=O)C(=O)N1` (stereo not drawn) [Compound 67]: the 50% inhibitory concentration (IC50) was less than 1.1 µM.

Regarding `Cc1c(Cl)cc(NC(=O)OCc2ccc3c(c2)C(=O)N(C2CCC(=O)NC2=O)C3)cc1OC1CCN(C)C1` (stereo not drawn) [Compound 68], the IC50 is less than 1.1 µM.

Regarding `O=C1CCC(N2Cc3ccc(COC(=O)Nc4cnc(N5CCCCC5)c(F)c4)cc3C2=O)C(=O)N1` (stereo not drawn) [Compound 72], the IC50 is less than 1.1 µM.

The experiment is the same for the next values; noted with them: read-out: rFP IC50.
As for `O=C1CCC(N2Cc3ccc(COC(=O)Nc4cc(F)cc(OC(F)(F)F)c4)cc3C2=O)C(=O)N1` (stereo not drawn) [Compound 57], the IC50 was greater than 1.7 µM.

As to `O=C1CCC(N2Cc3ccc(COC(=O)Nc4cc(OC(F)(F)F)ccn4)cc3C2=O)C(=O)N1` (stereo not drawn) [Compound 59], the half-inhibitory concentration (IC50) is less than 0.5 µM.

As for `O=C1CCC(N2Cc3ccc(COC(=O)Nc4ccc(N5CCCC5)nc4)cc3C2=O)C(=O)N1` (stereo not drawn) [Compound 60], the concentration for half-maximal inhibition (IC50) is less than 0.5 µM.

On to `O=C1CCC(N2Cc3ccc(COC(=O)Nc4ccc(F)c(OC(F)(F)F)c4)cc3C2=O)C(=O)N1` (stereo not drawn) [Compound 61], for which the 50% inhibitory concentration (IC50) was greater than 1.7 µM.

Consider `CCc1cc(NC(=O)OCc2ccc3c(c2)C(=O)N(C2CCC(=O)NC2=O)C3)ccn1` (stereo not drawn) [Compound 63], for which the concentration for half-maximal inhibition (IC50) is less than 0.5 µM.

For `O=C1CCC(N2Cc3ccc(COC(=O)Nc4ccc(N5CC6CCC(C5)O6)nc4)cc3C2=O)C(=O)N1` (stereo not drawn) [Compound 65], the IC50 was less than 0.5 µM.

On to `O=C1CCC(N2Cc3ccc(COC(=O)Nc4ccc5c(c4)CCO5)cc3C2=O)C(=O)N1` (stereo not drawn) [Compound 66], for which the half-maximal inhibitory concentration (IC50) is less than 0.5 µM.

With `CC1CCN(c2ccc(NC(=O)OCc3ccc4c(c3)C(=O)N(C3CCC(=O)NC3=O)C4)cn2)C1` (stereo not drawn) [Compound 69], the concentration for half-maximal inhibition (IC50) is less than 0.5 µM.

`Cc1c(Cl)cc(NC(=O)OCc2ccc3c(c2)C(=O)N(C2CCC(=O)NC2=O)C3)cc1OCC1CCN(C)C1` (stereo not drawn) [Compound 70]: the IC50 is less than 0.5 µM.

For the compound `O=C1CCC(N2Cc3ccc(COC(=O)Nc4ccc(N5CCCC(F)(F)C5)nc4)cc3C2=O)C(=O)N1` (stereo not drawn) [Compound 73], the half-inhibitory concentration (IC50) was less than 0.5 µM.

Take `CC1CCCN1c1ccc(NC(=O)OCc2ccc3c(c2)C(=O)N(C2CCC(=O)NC2=O)C3)cn1` (stereo not drawn) [Compound 74]: the IC50 was less than 0.5 µM.

As for `O=C1CCC(N2Cc3ccc(COC(=O)Nc4ccc(N5CCCCC5)nn4)cc3C2=O)C(=O)N1` (stereo not drawn) [Compound 75], the IC50 is less than 0.5 µM.
